ChEMBL document CHEMBL1142777, “Identification of potent type I MetAP inhibitors by simple bioisosteric replacement. Part 1: Synthesis and preliminary SAR studies of thiazole-4-carboxylic acid thiazol-2-ylamide derivatives” (Bioorg Med Chem Lett, 2005)

Experiments:
[1] = biological target: T1, Methionine aminopeptidase (Escherichia coli K-12, UniProt P0AE18); assay: Inhibitory concentration required against Escherichia coli MetAP1 (150 nM)
T1 sequence (P0AE18 whole entry): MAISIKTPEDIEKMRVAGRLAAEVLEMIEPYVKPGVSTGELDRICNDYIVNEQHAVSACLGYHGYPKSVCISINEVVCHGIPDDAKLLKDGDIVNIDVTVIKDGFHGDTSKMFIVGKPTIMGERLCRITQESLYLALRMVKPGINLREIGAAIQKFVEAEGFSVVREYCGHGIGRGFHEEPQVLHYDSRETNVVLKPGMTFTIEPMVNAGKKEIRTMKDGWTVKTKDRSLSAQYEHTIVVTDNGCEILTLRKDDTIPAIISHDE

[2] = biological target: T2, Methionine aminopeptidase 1 (Saccharomyces cerevisiae S288c, UniProt Q01662); assay: Inhibitory concentration required against Saccharomyces cerevisiae MetAP1 (330 nM)
T2 sequence (Q01662 whole entry): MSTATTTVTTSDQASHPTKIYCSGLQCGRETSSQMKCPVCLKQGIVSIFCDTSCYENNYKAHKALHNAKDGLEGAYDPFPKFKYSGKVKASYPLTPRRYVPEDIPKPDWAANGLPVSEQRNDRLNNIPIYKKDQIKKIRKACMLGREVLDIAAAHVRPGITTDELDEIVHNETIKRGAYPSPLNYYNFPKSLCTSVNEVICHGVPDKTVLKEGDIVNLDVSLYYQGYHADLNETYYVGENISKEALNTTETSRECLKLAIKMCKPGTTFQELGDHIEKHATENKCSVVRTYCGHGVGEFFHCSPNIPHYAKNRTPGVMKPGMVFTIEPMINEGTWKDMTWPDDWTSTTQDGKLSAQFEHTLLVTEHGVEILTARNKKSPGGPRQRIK

## O=C(Nc1nccs1)c1cscn1
[1]
  IC50: 110 nM
[2]
  IC50: 2260 nM

## CC(C)(C)OC(=O)Nc1scnc1C(=O)Nc1nccs1
[1]
  IC50: 60 nM
[2]
  IC50: 4620 nM

## COC(C)Cc1scnc1C(=O)Nc1nccs1 (stereo not drawn)
[1]
  IC50: 74 nM
[2]
  IC50: 880 nM

## O=C(Nc1nccs1)c1ncsc1Cc1ccccc1
[1]
  IC50: 170 nM
[2]
  IC50: 3800 nM

## O=C(CN1CCCC1)Nc1scnc1C(=O)Nc1nccs1
[1]
  IC50: 160 nM
[2]
  IC50: 860 nM

## O=C(Nc1scnc1C(=O)Nc1nccs1)c1cccc(Cl)c1
[1]
  IC50: 270 nM
[2]
  IC50: 1830 nM

## CN(C)CC(=O)Nc1scnc1C(=O)Nc1nccs1
[1]
  IC50: 300 nM
[2]
  IC50: 10500 nM

## O=C(O)CC(=O)Nc1scnc1C(=O)Nc1nccs1
[1]
  IC50: 88 nM
[2]
  IC50: 4910 nM

## O=C(CN1CCOCC1)Nc1scnc1C(=O)Nc1nccs1
[1]
  IC50: 110 nM
[2]
  IC50: 4710 nM

## O=C(Nc1nccs1)c1ncsc1NC(=O)C1CC1
[1]
  IC50: 42 nM
[2]
  IC50: 6380 nM

## O=C(CN1CCCCC1)Nc1cccnc1C(=O)Nc1nccs1
[1]
  IC50: 53 nM

## CC(C)Cc1scnc1C(=O)Nc1nccs1
[1]
  IC50: 100 nM
[2]
  IC50: 990 nM

## CCCCCc1scnc1C(=O)Nc1nccs1
[1]
  IC50: 160 nM
[2]
  IC50: 980 nM

## Nc1scnc1C(=O)Nc1nccs1
[1]
  IC50: 1970 nM
[2]
  IC50: 13200 nM

## CC(=O)OCC(=O)Nc1scnc1C(=O)Nc1nccs1
[1]
  IC50: 76 nM
[2]
  IC50: 2650 nM

## O=C(Nc1nccs1)c1ncsc1CCc1ccccc1
[1]
  IC50: 65 nM
[2]
  IC50: 660 nM

## CCCCCCCCCCCc1scnc1C(=O)Nc1nccs1
[1]
  IC50: 76500 nM
[2]
  IC50: > 100000 nM

## O=C(Nc1scnc1C(=O)Nc1nccs1)c1ccc(F)cc1
[1]
  IC50: 110 nM
[2]
  IC50: 480 nM

## Cc1scnc1C(=O)Nc1nccs1
[1]
  IC50: 180 nM
[2]
  IC50: 9820 nM

## COC(Cc1scnc1C(=O)Nc1nccs1)C(C)C (stereo not drawn)
[1]
  IC50: 89 nM
[2]
  IC50: 500 nM

## O=C(COCc1ccccc1)Nc1scnc1C(=O)Nc1nccs1
[1]
  IC50: 29 nM
[2]
  IC50: 1120 nM

## O=C(Nc1nccs1)c1ncsc1-c1ccccc1
[1]
  IC50: 210 nM
[2]
  IC50: 3410 nM

## CCc1scnc1C(=O)Nc1nccs1
[1]
  IC50: 180 nM
[2]
  IC50: 7640 nM

## CC(C)=CCC(=O)Nc1cccnc1C(=O)Nc1nccs1
[2]
  IC50: 140 nM

## O=C(Nc1nccs1)c1ncsc1NC(=O)C1CCCC1
[1]
  IC50: 24 nM
[2]
  IC50: 130 nM

## C=CC(C)C(=O)Nc1scnc1C(=O)Nc1nccs1 (stereo not drawn)
[1]
  IC50: 44 nM
[2]
  IC50: 370 nM

## CC(C)=CCCC(C)Cc1scnc1C(=O)Nc1nccs1 (stereo not drawn)
[1]
  IC50: 170 nM
[2]
  IC50: 2110 nM

## CCOC(=O)CC(=O)Nc1scnc1C(=O)Nc1nccs1
[1]
  IC50: 66 nM
[2]
  IC50: 670 nM

## O=C(Nc1nccs1)c1ncsc1NC(=O)C1CCC1
[1]
  IC50: 40 nM
[2]
  IC50: 250 nM

## O=C(Nc1scnc1C(=O)Nc1nccs1)c1ccccc1F
[1]
  IC50: 76 nM
[2]
  IC50: 990 nM

## CCC(=O)Nc1scnc1C(=O)Nc1nccs1
[1]
  IC50: 81 nM
[2]
  IC50: 220 nM

## O=C(Nc1nccs1)c1ncsc1Cc1ccc(F)cc1Cl
[1]
  IC50: 82 nM
[2]
  IC50: 900 nM

## COc1ccccc1C(=O)Nc1scnc1C(=O)Nc1nccs1
[1]
  IC50: 190 nM
[2]
  IC50: 3320 nM

## C=CCC(=O)Nc1scnc1C(=O)Nc1nccs1
[1]
  IC50: 54 nM
[2]
  IC50: 2630 nM

## O=C(CN1CCCCC1)Nc1scnc1C(=O)Nc1nccs1
[1]
  IC50: 140 nM
[2]
  IC50: 1450 nM

## COCC(=O)Nc1scnc1C(=O)Nc1nccs1
[1]
  IC50: 92 nM
[2]
  IC50: 1530 nM

## CC(C)c1scnc1C(=O)Nc1nccs1
[1]
  IC50: 220 nM
[2]
  IC50: 7200 nM

## C=CCC(=O)Nc1cccnc1C(=O)Nc1nccs1
[1]
  IC50: 130 nM
